Assay [1] deals with HCT116 cells and MKN45 cells. The assay can be described thus: Test C: measurement of cell proliferation by 14C-thymidine pulse. The assay is classed as cell-based. The note with it: 14C-thymidine incorporation, 96 h of treatment; cell line not given. On the procedure: The cells are seeded into Cytostar 96-well plates in 180 μl for 4 hours at 37° C. and 5% CO2: HCT116 cells at a rate of 2500 cells per well in DMEM medium+10% foetal calf serum+1% L-glutamine and MKN45 cells at a rate of 7500 cells per well in RPMI medium+10% foetal calf serum+1% L-glutamine. After these 4 hours of incubation, the products are added in 10 μl as a 20-fold concentrated solution according to the dilution method mentioned for the ELISA. The products are tested at 10 concentrations in duplicate from 10 000 nM to 0.3 nM with an increment of 3.
After treatment for 72 h, add 10 μl of ^14C-thymidine at 10 μCi/ml to obtain 0.1 μCi per well. The ^14C-thymidine incorporation is measured on a Micro-Beta machine (Perkin-Elmer) after 24 hours of pulse and 96 h of treatment.
All the steps of the assay are automated on BIOMEK 2000 or TECAN stations.
(In general: Incorporation of labelled thymidine or its analogues reports DNA synthesis.)

The target of assay [2] is T1, MET (Homo sapiens, UniProt P08581). Kind of assay: Test A: HTRF MET assay in 96-well format. The assay is classed as biochemical. Details: The His-Tev-MET (956-1390) recombinant DNA in pFastBac (Invitrogen) is transfected into insect cells; His tag (N, cleaved yes); Tev cleavage site (N, cleaved yes); made in house; host or cells: SF21 insect cells (baculovirus, pFastBac). The note with it: MET 5 nM, 10 μM ATP. The method, then: The His-Tev-MET (956-1390) recombinant DNA in pFastBac (Invitrogen) is transfected into insect cells, and after several viral amplification steps, the final baculovirus stock is tested for the expression of the protein of interest.
After infection for 72 h at 27° C. with the recombinant virus, the SF21 cell cultures are harvested by centrifugation and the cell pellets are stored at −80° C.
The cell pellets are resuspended in lysis buffer (buffer A [50 mM HEPES, pH 7.5, 250 mM NaCl, 10% glycerol, 1 mM TECP]; +cocktail of protease inhibitors, Roche Diagnostics, without EDTA, ref 1873580), stirred at 4° C. until the mixture is homogeneous and then lyzed mechanically using a “Dounce” type apparatus.
After centrifugation, the lysis supernatant is incubated for 2 h at 4° C. with nickel chelate resin (His-Trap 6 Fast Flow™, GE HealthCare). After washing with 20 volumes of buffer A, the suspension is packed into a column, and the proteins are eluted with a gradient of buffer B ([…]+290 mM imidazole).
The fractions containing the protein of interest for the purpose of electrophoretic analysis (SDS PAGE) are combined, concentrated by ultrafiltration (10 kDa cut-off) and injected onto an exclusion chromatography column (Superdex™ 200, GE HealthCare) equilibrated in buffer A.
After enzymatic cleavage of the histidine tag, the protein is reinjected onto a new IMAC nickel chelate chromatography column (His-Trap 6 Fast Flow™, GE HealthCare) equilibrated in buffer A. The fractions eluted with a gradient of buffer B and containing the protein of interest after electrophoresis (SDS PAGE) are finally combined and conserved at −80° C.
For the production of autophosphorylated protein, the previous fractions are incubated for 1 h at ambient temperature after the addition of 2 mM ATP, 2 mM MgCl2, and 4 mM Na3VO4. After the reaction has been stopped with 5 mM of EDTA, the reaction mixture is injected onto a HiPrep desalifying column (GE HealthCare) preequilibrated in buffer A+4 mM Na3VO4, and the fractions containing the protein of interest (SDS PAGE analysis) are combined and stored at −80° C. The degree of phosphorylation is verified by mass spectrometry (LC-MS) and by peptide mapping.
MET at a final concentration of 5 nM is incubated in a final volume of 50 μl of enzymatic reaction in the presence of the test molecule (for a final concentration range of from 0.17 nM to 10 μM, 3% DMSO final concentration) in 10 mM MOPS buffer, pH 7.4, 1 mM DTT, 0.01% Tween 20. The reaction is initiated with the substrate solution to obtain final concentrations of 1 μg/ml poly-(GAT), 10 μM ATP and 5 mM MgCl2. After incubation for 10 min at ambient temperature, the reaction is stopped with a 30 μl mix so as to obtain a final solution of 50 mM Hepes pH 7.5, 500 mM potassium fluoride, 0.1% BSA and 133 mM EDTA in the presence of 80 ng of streptavidin 61SAXLB Cis-Bio Int. and 18 ng of anti-phosphotyrosine Mab PT66-Europium Cryptate per well. After incubation for 2 hours at ambient temperature, the reading is taken at 2 wavelengths, 620 nm and 665 nm, on a reader for the TRACE/HTRF technique and the % inhibition is calculated from the 665/620 ratios.
Target sequence in this assay (P08581 956-1390): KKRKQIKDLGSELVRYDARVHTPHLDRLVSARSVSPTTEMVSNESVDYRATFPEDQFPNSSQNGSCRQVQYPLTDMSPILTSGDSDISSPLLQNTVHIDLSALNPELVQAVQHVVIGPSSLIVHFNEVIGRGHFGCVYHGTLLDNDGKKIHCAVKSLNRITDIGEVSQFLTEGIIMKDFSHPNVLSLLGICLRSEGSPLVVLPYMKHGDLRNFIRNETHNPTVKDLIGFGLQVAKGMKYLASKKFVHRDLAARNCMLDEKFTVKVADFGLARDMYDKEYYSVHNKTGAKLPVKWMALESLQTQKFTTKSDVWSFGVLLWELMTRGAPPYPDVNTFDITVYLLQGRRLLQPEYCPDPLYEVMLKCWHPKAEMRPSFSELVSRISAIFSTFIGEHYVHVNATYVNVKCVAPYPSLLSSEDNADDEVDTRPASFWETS

Assay [3] addresses T1, MET. The assay can be described thus: Test B: inhibition of the autophosphorylation of MET, ELISA technique (pppY1230, 1234, 1235) on MKN45 cell lysates. Set-up: endogenous in cells; host or cells: MKN45 cells. The assay is classed as cell-based. The note with it: MKN45 cells, 1 h treatment, phosphoMET ELISA. On the procedure:
a) Cell lysates: Seed MKN45 cells into 96-well plates (Cell coat BD polylysine) at 20 000 cells/well in 200 μl in RPMI medium+10% FCS+1% L-glutamine. Leave to adhere for 24 hours in an incubator.
The cells are treated the day after seeding with the products at 6 concentrations in duplicate for 1 h. At least 3 control wells are treated with the same final amount of DMSO.
Product dilution: Stock at 10 mM in pure DMSO—range from 10 mM to 30 μM with an increment of 3 in pure DMSO—intermediate 1/50 dilutions in culture medium and then removal of 10 μl added directly to the cells (200 μl): final range of 10 000 to 30 nM.
At the end of the incubation, carefully remove the supernatant and rinse with 200 μl of PBS. Next, place 100 μl of lysis buffer directly in the wells on ice and incubate at 4° C. for 30 minutes. Lysis buffer: 10 mM Tris HCl, pH7.4, 100 mM NaCl, 1 mM EDTA, 1 mM EGTA, 1% Triton X-100, 10% glycerol, 0.1% SDS, 0.5% deoxycholate, 20 mM NaF, 2 mM Na3VO4, 1 mM PMSF and cocktail of antiproteases.
The 100 μl of lysates are transferred into a V-bottomed polypropylene plate and the ELISA is performed immediately, or the plate is frozen at −80° C.
Into each well of the kit plate, add 70 μl of kit dilution buffer+30 μL of cell lysate or 30 μl of lysis buffer for the blanks. Incubate for 2 h with gentle agitation at ambient temperature.
Rinse the wells 4 times with 400 μl of kit washing buffer. Incubate with 100 μl of anti-phospho MET antibody for 1 hour at ambient temperature.
Rinse the wells 4 times with 400 μl of kit washing buffer. Incubate with 100 μl of anti-rabbit HRP antibody for 30 minutes at ambient temperature (except for the wells of chromogen alone).
Rinse the wells 4 times with 400 μl of kit washing buffer. Introduce 100 μL of chromogen and incubate for 30 minutes in the dark at ambient temperature.
Stop the reaction with 100 μl of stop solution. Read without delay at […], 0.1 second on Wallac Victor plate reader.
Target sequence in this assay (P08581 25-1390): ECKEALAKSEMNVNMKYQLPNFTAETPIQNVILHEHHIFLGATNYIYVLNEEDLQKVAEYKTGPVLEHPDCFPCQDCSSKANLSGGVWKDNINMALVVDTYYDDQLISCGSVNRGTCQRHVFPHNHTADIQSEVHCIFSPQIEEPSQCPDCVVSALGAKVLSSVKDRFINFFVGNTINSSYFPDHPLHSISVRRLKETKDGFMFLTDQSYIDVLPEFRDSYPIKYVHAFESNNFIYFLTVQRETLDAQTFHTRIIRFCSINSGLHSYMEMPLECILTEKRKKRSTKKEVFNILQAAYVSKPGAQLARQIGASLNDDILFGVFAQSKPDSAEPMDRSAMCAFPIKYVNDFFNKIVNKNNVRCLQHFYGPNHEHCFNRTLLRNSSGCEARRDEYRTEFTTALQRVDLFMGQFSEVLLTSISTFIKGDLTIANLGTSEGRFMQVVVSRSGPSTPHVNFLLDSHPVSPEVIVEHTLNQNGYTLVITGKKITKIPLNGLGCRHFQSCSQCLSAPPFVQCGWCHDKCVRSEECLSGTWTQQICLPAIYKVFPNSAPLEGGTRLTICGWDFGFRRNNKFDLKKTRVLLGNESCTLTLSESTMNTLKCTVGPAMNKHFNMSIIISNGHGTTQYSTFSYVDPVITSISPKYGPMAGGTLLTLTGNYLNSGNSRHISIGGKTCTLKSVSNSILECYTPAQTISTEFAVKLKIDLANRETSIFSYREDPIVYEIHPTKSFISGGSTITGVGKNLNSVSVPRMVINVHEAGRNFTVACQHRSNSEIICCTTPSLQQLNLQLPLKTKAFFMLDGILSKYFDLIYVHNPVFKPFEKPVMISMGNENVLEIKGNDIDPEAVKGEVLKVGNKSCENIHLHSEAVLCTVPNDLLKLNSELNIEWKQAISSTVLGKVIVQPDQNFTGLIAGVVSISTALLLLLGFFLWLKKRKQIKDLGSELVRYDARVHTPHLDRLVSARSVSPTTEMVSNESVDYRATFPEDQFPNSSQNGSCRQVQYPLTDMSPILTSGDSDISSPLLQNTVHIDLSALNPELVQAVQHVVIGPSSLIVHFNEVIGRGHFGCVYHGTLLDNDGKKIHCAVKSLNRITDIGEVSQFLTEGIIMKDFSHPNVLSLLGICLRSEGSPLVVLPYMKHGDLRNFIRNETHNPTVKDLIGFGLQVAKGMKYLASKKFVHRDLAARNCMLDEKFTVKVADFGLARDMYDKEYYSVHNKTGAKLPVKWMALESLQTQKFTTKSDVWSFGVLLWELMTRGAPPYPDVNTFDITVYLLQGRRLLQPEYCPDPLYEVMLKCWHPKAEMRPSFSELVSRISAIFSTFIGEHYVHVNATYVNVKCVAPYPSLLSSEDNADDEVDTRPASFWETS
For orientation: ELISA stands for enzyme-linked immunosorbent assay.

These results are taken from US20120040987A1, “DERIVATIVES OF 6-(6-NH-SUBSTITUTED-TRIAZOLOPYRIDAZINE-SULFANYL) BENZOTHIAZOLES AND BENZIMIDAZOLES, PREPARATION THEREOF, USE THEREOF AS DRUGS, AND USE THEREOF AS MET INHIBITORS” (SANOFI, priority 2009, published 2012).

As a reminder, the IC50 is the concentration that gives 50% inhibition.

`Nc1nc2ccc(Sc3nnc4ccc(NC5CCOCC5)nn34)cc2s1` [Example 1, 3-[(2-Amino-1,3-benzothiazol-6-yl)sulphanyl]-N-(tetrahydro-2H-pyran-4-yl)[1,2,4]triazolo[4,3-b]pyridazin-6-amine]: the 50% inhibitory concentration (IC50) is < 1000 nM in assay [1] and < 100 nM in assay [2].
In the case of `CC(=O)Nc1nc2ccc(Sc3nnc4ccc(NC5CCOCC5)nn34)cc2s1` [Example 2, N-(6-{[6-(Tetrahydro-2H-pyran-4-ylamino)[1,2,4]triazolo[4,3-b]pyridazin-3-yl]sulphanyl}-1,3-benzothiazol-2-yl)acetamide], the IC50 in assay [1] was < 1000 nM; in assay [3], < 100 nM; in assay [2], < 100 nM.
Take `O=C(Nc1nc2ccc(Sc3nnc4ccc(NC5CCOCC5)nn34)cc2s1)C1CC1` [Example 3, N-(6-{[6-(Tetrahydro-2H-pyran-4-ylamino)[1,2,4]triazolo[4,3-b]pyridazin-3-yl]sulphanyl}-1,3-benzothiazol-2-yl)cyclopropanecarboxamide]: the results for the concentration for half-maximal inhibition (IC50) in assay [1], in assay [3] and in assay [2] were < 1000 nM, < 100 nM and < 100 nM, respectively.
As for `O=C(NCCN1CCOCC1)Nc1nc2ccc(Sc3nnc4ccc(NC5CCOCC5)nn34)cc2s1` [Example 4, 1-[2-(Morpholin-4-yl)ethyl]-3-(6-{[6-(tetrahydro-2H-pyran-4-ylamino)-[1,2,4]triazolo[4,3-b]pyridazin-3-yl]sulphanyl}-1,3-benzothiazol-2-yl)urea], the 50% inhibitory concentration (IC50) in assay [1] is < 1000 nM; in assay [3] it was < 100 nM; in assay [2] it was < 100 nM.
Turning to `COCCC(=O)Nc1nc2ccc(Sc3nnc4ccc(NC5CCOCC5)nn34)cc2s1` [Example 5, 3-Methoxy-N-(6-{[6-(tetrahydro-2H-pyran-4-ylamino)[1,2,4]triazolo-[4,3-b]pyridazin-3-yl]sulphanyl}-1,3-benzothiazol-2-yl)propanamide], the IC50 in assay [1] was < 1000 nM; in assay [3], < 100 nM; in assay [2], < 100 nM.
Regarding `CN(C)CC(=O)Nc1nc2ccc(Sc3nnc4ccc(NC5CCOCC5)nn34)cc2s1` [Example 6, N^2,N^2-dimethyl-N-(6-{[6-(tetrahydro-2H-pyran-4-ylamino)[1,2,4]triazolo-[4,3-b]pyridazin-3-yl]sulphanyl}-1,3-benzothiazol-2-yl)glycinamide], the IC50 is < 1000 nM in assay [1], < 100 nM in assay [3] and < 100 nM in assay [2].
